Reference: doi:10.1101/2025.11.27.690678v1, “Experience from an HTS campaign: Investigation of susceptibility and rescue of SARS-CoV-2 nsp3 protease assay from metal contamination” (biorxiv, 2025)

Target: T1, SARS-CoV-2 nsp3 (Twinstrep nsp3 (179-1329)-His); PLPro (Severe acute respiratory syndrome coronavirus 2, UniProt P0DTD1)
T1 construct: gene rep
Test: fluorescence, RLRGG-AMC cleavage
Type: biochemical
Excerpt: fluorescence, RLRGG-AMC cleavage on SARS-CoV-2 nsp3 (Twinstrep nsp3 (179-1329)-His); PLPro

SMILES | IC50
O=C(O)c1cn(-c2cccc(C(F)(F)F)c2)nn1 [compound 1, Compound 1] | > 100 µM
Cn1ccnc1-c1cn(CCCc2csc(N)n2)nn1 [compound 2, Compound 2] | > 100 µM
COc1ccc(-n2cc(CNC(=O)c3cc[nH]n3)nn2)cc1 [compound 3, Compound 3] | > 100 µM
CC(=O)Nc1ccc(Sc2ccccc2C(=O)O)cn1 [compound 4, Compound 4] | > 100 µM
